“Also recorded” adds a separate entry of the source.
Experiments:
A172 (glioblastoma) = assay: XTT cell growth assay, A172; format: cell-based; conditions: A172 cells; 5 to 25 μM
Description: (§1) The tumors cell lines used in this study included PC-3 (human prostate cancer), WM-266-4 cell (human metastatic melanoma), MDA-MB 231 (human breast cancer) and A172 (glioblastoma). […] The benign fibroblasts were tolerable to this conjugate, accentuating its potential as anticancer candidate. At the end of the culture period, cell growth was estimated by XTT assay. After 4 hours incubation of the cells with the XTT reagent, optical density (OD) of the reduced XTT product was then measured at 480 and 680 nm. Percentage of growth inhibition by a test compound was calculated by comparison of the treated culture versus a control culture (free of any compound). The result shown for each concentration point represents the mean+/−standard error calculated from 3 different experiments. In each experiment the compounds were tested in triplicates.

benign fibroblasts = assay: In vitro cytotoxicity on benign fibroblasts; format: cell-based
Description: as §1

[1] = tested on: WM-266.4 human melanoma xenograft; assay: Experiment 2: human melanoma model mice, IP injection 3 times a week; format: in vivo; conditions: for WM-266.4 cell proliferation (tumor size) in vivo: IP 3 times a week
Description: (§2) In another experiment (Experiment 2), 13 human melanoma model mice were treated 3 times a week by IP injection with of Chimera 358 followed by 2 days of observation according to the following groups: 3 control mice received saline, 5 mice with 5 mg and 5 mice with 10 mg. The treatment was started two weeks after grafting, when tumor development has started.

[2] = Body weight monitoring, Experiment 2; format: in vivo, mice; conditions: 5 mg group; IP 3 times a week
Description: as §2
FIG. 7 presents the results of the body weight monitoring of 13 mice that undergone the treatment described in Experiment 2.

[3] = tested on: MDA-MB 231 (human breast cancer); assay: XTT cell growth assay, MDA-MB 231; format: cell-based; conditions: MDA-MB 231 cells; 5 to 25 μM; 24 hours incubation (FIGS. 1E, 1F)
Description: as §1

[4] = tested on: primary fibroblast (FB) cells; assay: Annexin V-FITC/PI flow cytometry detection of apoptotic/necrotic stages, fibroblasts; format: cell-based; conditions: 10 μM, compared to cancer cells
Description: Detection of apoptotic/necrotic stages of tumor cells was examined by Annexin V-FITC/PI apoptosis detection kit (MEBCYTO). Viable cells are negative for staining of either Annexin V or PI. Early apoptotic stage indicated with positive Annexin V and negative PI, whereas late-apoptotic and necrotic stages characterized by high PI signal.
FIGS. 3A-C present flow cytometry analysis of fibroblast cells treated with 10 μM of chimera 358 for 2 hours (FIG. 3A), 4 hours (FIG. 3B) and 8 hours (FIG. 3C), showing detection of apoptotic/necrotic stages of the cells.

[5] = tested on: PC-3 (human prostate cancer); assay: XTT cell growth assay, PC-3; format: cell-based; conditions: PC-3 cells; 5 to 25 μM; 24 and 48 hours incubation
Description: as §1

[6] = tested on: WM-266.4 human melanoma xenograft; assay: Experiment 1: human melanoma model mice, daily IP injection for 7 days; format: in vivo
Description: (§3) In one experiment (Experiment 1), 14 human melanoma model mice (immune-deficient xenograft) were treated daily for 7 days by IP injection with of Chimera 358 followed by 2 days of observation according to the following groups: 4 control mice treated with saline, 5 mice treated with 25 mg and 5 mice treated with 10 mg.

[7] = tested on: WM-266-4 cell (human metastatic melanoma); assay: XTT cell growth assay, WM-266-4; format: cell-based; conditions: WM-266-4 cells; 5 to 25 μM; 24 and 48 hours incubation
Description: as §1

[8] = Body weight monitoring, Experiment 1; format: in vivo, mice; conditions: 25 mg group; IP daily for 7 days
Description: as §3
FIG. 6 presents the results of the body weight monitoring of 14 mice that undergone the treatment described in Experiment 1.

CN(C)CCN1C(=O)c2cccc3cc(NC(=O)CCCc4ccc(N(CCCl)CCCl)cc4)cc(c23)C1=O [Chimera 358, 4-(4-(bis(2-chloroethyl)amino)phenyl)-N-(2-(2-(dimethylamino)ethyl)-1,3-dioxo-2,3-dihydro-1H-benzo[de]isoquinolin-5-yl)butanamide]
inhibition of cancer cell growth (XTT) (A172 (glioblastoma)): remarkable inhibition of cancer cell growth
effect on benign fibroblasts (benign fibroblasts): tolerable
WM-266.4 cell proliferation (tumor size) in vivo ([1]; 5 mg group): kept growing
survival ([1]; 10 mg group (5 mice), IP three times weekly): one mouse
WM-266.4 cell proliferation (tumor size) in vivo ([1]; 10 mg group): grew to a much lesser extent
body weight [2]: maintained their body weight
inhibition of cancer cell growth / cell viability (XTT) [3]: remarkable inhibition of cancer cell growth; also recorded: notable cell toxicity
cell death (apoptotic/necrotic stages) [4]: moderate
inhibition of cancer cell growth / cell viability (XTT) [5]: remarkable inhibition of cancer cell growth; also recorded: notable cell toxicity
survival ([6]; 10 mg group (5 mice), IP daily for 7 days): one mouse
WM-266.4 cell proliferation (tumor size) in vivo ([6]; 10 mg group, after four weeks of the treatment): notable decrease in tumor size
WM-266.4 cell proliferation (tumor size) in vivo ([6]; mice receiving the treatment (25 mg, 10 mg) versus saline control): grew to a much lesser extent
inhibition of cancer cell growth / cell viability (XTT) [7]: remarkable inhibition of cancer cell growth; also recorded: notable cell toxicity
body weight [8]: loss of body weight
